According to patent publication US20240246980A1, “MODULATORS OF MAS-RELATED G-PROTEIN RECEPTOR D AND RELATED PRODUCTS AND METHODS” (Escient Pharmaceuticals, Inc., priority 2022, published 2024):

biological target: human MRGPRD (Homo sapiens, UniProt Q8TDS7); experiment: MRGPRD antagonist activity, IP-One HTRF assay in CHO cells stably expressing human MRGPRD (versus 100 μM β-Alanine agonist); type: cell-based
Protocol: Chinese Hamster Ovary (CHO) cells stably expressing human MRGPRD (Eurofins, San Diego CA) were plated in a 384-well plate at 20,000 cells per well in 12 μL of Optimem (Fisher Scientific 11-058-021). Plates were kept in the incubator at 37° C. overnight. Antagonists were solubilized at a concentration of 10 mM in DMSO, and the agonists were solubilized to stock concentrations of either 50 mM in H2O (β-Alanine) or 10 mM in DMSO (all others) and then diluted in assay buffer (final concentrations of 5.7 mM Tris-HCl, 43 mM NaCl, 50 mM LiCl, pH=8). The concentration of DMSO was normalized across the plate. Antagonists were added to the plate using a Tecan D300 Digital Dispenser at nanoliter/picoliter volumes and 2 μL of agonists in assay buffer were added to each well for a final assay volume of 14 μL. Plates were covered and incubated for 1 h at 37° C. and then for 1 h at room temperature. IP-1 standards and HTRF detection reagents were added according to an IP-One-Gq Kit purchased from Cisbio (part number 62IPAPEJ) and incubated in the dark for 1 h at room temperature. Assay plates were read on either a Molecular Devices SpectraMax iD5 plate reader or a BMG ClarioStar plate reader. The HTRF ratio was calculated form the raw data and graphed using GraphPad Prism to calculate IC50 values. Data are expressed as average IC50 values and average percent antagonism calculated as a percent of the maximum efficacy response. For these studies, the variability of the data was assessed by determining the standard error of mean (SEM).
The activity ranges are denoted as follows: “+++++” denotes antagonist activity <100 nM; “++++” denotes antagonist activity between 100 and 500 nM; “+++” denotes activity between 500 and 1000 nM; “++” denotes activity between 1000 and 3000 nM; and “+” denotes activity >3000 nM.

human MRGPRD, sequence (Q8TDS7 whole entry): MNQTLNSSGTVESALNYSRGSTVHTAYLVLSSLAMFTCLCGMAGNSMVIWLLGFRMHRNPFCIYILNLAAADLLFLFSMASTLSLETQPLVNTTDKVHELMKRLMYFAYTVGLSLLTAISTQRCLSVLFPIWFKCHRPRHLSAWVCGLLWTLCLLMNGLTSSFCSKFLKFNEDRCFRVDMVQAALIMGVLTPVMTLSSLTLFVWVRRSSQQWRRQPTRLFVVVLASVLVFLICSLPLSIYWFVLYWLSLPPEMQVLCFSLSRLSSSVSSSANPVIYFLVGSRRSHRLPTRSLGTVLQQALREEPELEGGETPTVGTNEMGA

Structure (SMILES) | IC50 [nM]
COc1cccc(-c2nc([C@@H]3CCCN(C(=O)N[C@H]4CC[C@@H](O)CC4)C3)n3ccccc23)c1 [Compound 5-56] | 100 to 500
COc1cccc(-c2nc([C@@H]3CCCN(C(=O)Nc4ccc5c(c4)COCO5)C3)n3ccccc23)c1 [Compound 5-57] | < 100
COc1ccc(CNC(=O)N2CCC[C@@H](c3nc(-c4cccc(OC)c4)c4ccccn34)C2)cc1 [Compound 5-58] | < 100
COc1cccc(-c2nc([C@@H]3CCCN(C(=O)Nc4cc(C)nn4C)C3)n3ccccc23)c1 [Compound 5-59] | < 100
COc1cccc(-c2nc([C@@H]3CCCN(C(=O)NCc4ccccc4)C3)n3ccccc23)c1 [Compound 5-60] | < 100
COc1cccc(-c2nc([C@@H]3CCCN(C(=O)Nc4cccc(-c5csc(C)n5)c4)C3)n3ccccc23)c1 [Compound 5-61] | < 100
COc1cccc(-c2nc([C@@H]3CCCN(C(=O)Nc4cnc5ccccn45)C3)n3ccccc23)c1 [Compound 5-62] | < 100
COc1cccc(-c2nc([C@@H]3CCCN(C(=O)Nc4ccc(CC#N)cc4)C3)n3ccccc23)c1 [Compound 5-63] | < 100
COc1cccc(-c2nc([C@@H]3CCCN(C(=O)NC4CCN(C)CC4)C3)n3ccccc23)c1 [Compound 5-64] | 500 to 1000
COc1cccc(-c2nc([C@@H]3CCCN(C(=O)Nc4ccc5ncsc5c4)C3)n3ccccc23)c1 [Compound 5-65] | < 100
COc1cccc(-c2nc([C@@H]3CCCN(C(=O)Nc4nocc4C)C3)n3ccccc23)c1 [Compound 5-66] | < 100
COc1cccc(-c2nc([C@@H]3CCCN(C(=O)Nc4nccs4)C3)n3ccccc23)c1 [Compound 5-67] | < 100
CCn1cc(CNC(=O)N2CCC[C@@H](c3nc(-c4cccc(OC)c4)c4ccccn34)C2)cn1 [Compound 5-68] | < 100
COc1cccc(-c2nc([C@@H]3CCCN(C(=O)Nc4cc(C#N)on4)C3)n3ccccc23)c1 [Compound 5-69] | < 100
COc1cccc(-c2nc([C@@H]3CCCN(C(=O)N[C@H]4CC[C@H](O)CC4)C3)n3ccccc23)c1 [Compound 5-70] | < 100
COc1cccc(-c2nc([C@@H]3CCCN(C(=O)NC4CC(C)C4)C3)n3ccccc23)c1 (stereo partly drawn) [Compound 5-71] | < 100
COc1cccc(-c2nc([C@@H]3CCCN(C(=O)Nc4cnc(N(C)C)nc4)C3)n3ccccc23)c1 [Compound 5-72] | < 100
COc1cccc(-c2nc([C@@H]3CCCN(C(=O)Nc4cnc(C)nc4)C3)n3ccccc23)c1 [Compound 5-73] | < 100
COc1cccc(-c2nc([C@@H]3CCCN(C(=O)Nc4cccc(CO)c4)C3)n3ccccc23)c1 [Compound 6-1, (R)—N-(3-(hydroxymethyl)phenyl)-3-(1-(3-methoxyphenyl)imidazo[1,5-a]pyridin-3-yl)piperidine-1-carboxamide] | < 100

Structure (SMILES) | IC50 [nM]
CNc1ccc(NC(=O)N2CCC[C@@H](c3nc(-c4cccc(OC)c4)c4ccccn34)C2)cc1 [Compound 7-1, (R)-3-(1-(3-methoxyphenyl)imidazo[1,5-a]pyridin-3-yl)-N-(4-(methylamino)phenyl)piperidine-1-carboxamide] | < 100
COc1cccc(-c2nc(-c3cccc(C(=O)Nc4cccc(N(C)C)c4)c3)n3ccccc23)c1 [Compound 8-1, N-(3-(dimethylamino)phenyl)-3-(1-(3-methoxyphenyl)imidazo[1,5-a]pyridin-3-yl)benzamide] | 100 to 500
COc1cccc(-c2nc(-c3cccc(C(=O)Nc4ccc(N(C)C)cc4)c3)n3ccccc23)c1 [Compound 8-2] | < 100
COc1cccc(-c2nn(C3CCCN(C(=O)Nc4ccc(N(C)C)cc4)C3)c3ncccc23)c1 (stereo not drawn) [Compound 9-1, N-(4-(dimethylamino)phenyl)-3-(3-(3-methoxyphenyl)-1H-pyrazolo[3,4-b]pyridin-1-yl)piperidine-1-carboxamide] | < 100
COc1cccc(-c2nn(C3CCCN(C(=O)Nc4cccc(N(C)C)c4)C3)c3ncccc23)c1 (stereo not drawn) [Compound 9-2] | < 100
CN(C)c1ccc(NC(=O)N2CCC[C@@H](c3nc(-c4ccccc4)c4ccccn34)C2)cc1 [Compound 10-2] | 500 to 1000
CN(C)c1ccc(NC(=O)N2CCC[C@@H](c3nc(-c4ccccc4C(F)(F)F)c4ccccn34)C2)cc1 [Compound 10-3] | 500 to 1000
CCOc1cccc(-c2nc([C@@H]3CCCN(C(=O)Nc4ccc(N(C)C)cc4)C3)n3ccccc23)c1 [Compound 10-4] | < 100
CN(C)c1ccc(NC(=O)N2CCC[C@@H](c3nc(-c4cccc(O)c4)c4ccccn34)C2)cc1 [Compound 10-5] | 500 to 1000
CN(C)c1ccc(NC(=O)N2CCC[C@@H](c3nc(-c4cccc(N(C)C)c4)c4ccccn34)C2)cc1 [Compound 10-6] | 100 to 500
CC(=O)c1cccc(-c2nc([C@@H]3CCCN(C(=O)Nc4ccc(N(C)C)cc4)C3)n3ccccc23)c1 [Compound 10-7] | < 100
CN(C)c1ccc(NC(=O)N2CCC[C@@H](c3nc(-c4ccccc4Cl)c4ccccn34)C2)cc1 [Compound 10-8] | 500 to 1000
CCc1cccc(-c2nc([C@@H]3CCCN(C(=O)Nc4ccc(N(C)C)cc4)C3)n3ccccc23)c1 [Compound 10-9] | 500 to 1000
CN(C)c1ccc(NC(=O)N2CCC[C@@H](c3nc(-c4cccc(-c5ccccc5)c4)c4ccccn34)C2)cc1 [Compound 10-10] | > 3000
CN(C)c1ccc(NC(=O)N2CCC[C@@H](c3nc(-c4cccc(C(F)(F)F)c4)c4ccccn34)C2)cc1 [Compound 10-11] | 500 to 1000
CN(C)c1ccc(NC(=O)N2CCC[C@@H](c3nc(-c4cccc(C#N)c4)c4ccccn34)C2)cc1 [Compound 10-12] | 500 to 1000
CC(C)Oc1cccc(-c2nc([C@@H]3CCCN(C(=O)Nc4ccc(N(C)C)cc4)C3)n3ccccc23)c1 [Compound 10-13] | 500 to 1000
CN(C)c1ccc(NC(=O)N2CCC[C@@H](c3nc(-c4ccc(OC(F)(F)F)cc4)c4ccccn34)C2)cc1 [Compound 10-14] | 1000 to 3000
CN(C)c1ccc(NC(=O)N2CCC[C@H](c3nc(-c4ccccc4)c4ccccn34)C2)cc1 [Compound 10-15] | 1000 to 3000

Structure (SMILES) | IC50 [nM]
CN(C)c1ccc(NC(=O)N2CCC[C@@H](c3nc(-c4cccc(C(F)F)c4)c4ccccn34)C2)cc1 [Compound 10-16] | 100 to 500
COc1cc(OC)cc(-c2nc([C@@H]3CCCN(C(=O)Nc4ccc(N(C)C)cc4)C3)n3ccccc23)c1 [Compound 10-17] | < 100
CC(O)c1cccc(-c2nc([C@@H]3CCCN(C(=O)Nc4ccc(N(C)C)cc4)C3)n3ccccc23)c1 (stereo partly drawn) [Compound 10-18] | 100 to 500
CN(C)c1ccc(NC(=O)N2CCC[C@@H](c3nc(-c4ccc(Cl)cc4)c4ccccn34)C2)cc1 [Compound 10-19] | 500 to 1000
CN(C)c1ccc(NC(=O)N2CCC[C@@H](c3nc(-c4ccccc4-c4ccccc4)c4ccccn34)C2)cc1 [Compound 10-20] | > 3000
CCc1ccccc1-c1nc([C@@H]2CCCN(C(=O)Nc3ccc(N(C)C)cc3)C2)n2ccccc12 [Compound 10-21] | 100 to 500
CN(C)c1ccc(NC(=O)N2CCC[C@@H](c3nc(-c4cccc(Cl)c4)c4ccccn34)C2)cc1 [Compound 10-22] | 500 to 1000
CN(C)c1ccc(NC(=O)N2CCC[C@@H](c3nc(-c4ccc(C#N)cc4)c4ccccn34)C2)cc1 [Compound 10-23] | 500 to 1000
CN(C)c1ccc(NC(=O)N2CCC[C@@H](c3nc(-c4cccc(OC(F)(F)F)c4)c4ccccn34)C2)cc1 [Compound 10-24] | 500 to 1000
COc1cccc(-c2nc([C@@H]3CCCN(C(=O)NCCc4ccnn4C)C3)n3ccccc23)c1 [Compound 10-25] | 100 to 500
CN(C)c1ccc(NC(=O)N2CCC[C@@H](c3nc(-c4ccc5c(c4)CCC5)c4ccccn34)C2)cc1 [Compound 10-26] | 500 to 1000
CN(C)c1ccc(NC(=O)N2CCC[C@@H](c3nc(-c4ccc5c(c4)OCO5)c4ccccn34)C2)cc1 [Compound 10-27] | 500 to 1000
CN(C)c1ccc(NC(=O)N2CCC[C@H](c3nc(-c4cccc(F)c4)c4ccccn34)C2)cc1 [Compound 10-28] | 1000 to 3000
CCc1ccc(-c2nc([C@@H]3CCCN(C(=O)Nc4ccc(N(C)C)cc4)C3)n3ccccc23)cc1 [Compound 10-29] | 500 to 1000
CN(C)c1ccc(NC(=O)N2CCC[C@@H](c3nc(-c4ccc(C(F)(F)F)cc4)c4ccccn34)C2)cc1 [Compound 10-30] | 1000 to 3000
COc1ccccc1-c1nc([C@H]2CCCN(C(=O)Nc3ccc(N(C)C)cc3)C2)n2ccccc12 [Compound 10-31] | > 3000
CN(C)c1ccc(NC(=O)N2CCC[C@@H](c3nc(-c4ccccc4C(F)F)c4ccccn34)C2)cc1 [Compound 10-32] | 1000 to 3000
CN(C)c1ccc(NC(=O)N2CCC[C@@H](c3nc(-c4ccc(-c5ccccc5)cc4)c4ccccn34)C2)cc1 [Compound 10-33] | > 3000
CN(C)c1ccc(NC(=O)N2CCC[C@@H](c3nc(-c4ccc5ccccc5c4)c4ccccn34)C2)cc1 [Compound 10-34] | 1000 to 3000
